Converted amounts (≈) assume the structure as drawn. Where two headings read alike, the source gives them in different places.
How the values were obtained:
Format in all cases: physicochemical
[1] = Thermodynamic solubility by UPLC in biological media (FaSSGF, FaSSIF); settings: thermodynamic from solid, 37° C., 24 h orbital shaker, all solids dissolved
Protocol: A thermodynamic solubility in water was determined by providing a suitable concentration of compound prepared by suspending a sufficient compound in water or buffer according to estimated solubilities of the medium and the compound. Quantification was done by UPLC with reference to a standard calibration curve. A solubility was calculated with QuanLynx using a peak area determined by the integration of a peak found at the same retention time as the main peak in the standard injection.
To measure the solubility of ED01748-006-001-00 Pattern 1, experiments were carried out in biological media (Fasted simulated gastric fluid (FaSSGF) and Fasted simulated intestinal fluid (FaSSIF)) at 37° C. […] each of samples was dispersed into each of four vials, 1 mL each of FaSSGF and FaSSIF was added to each of the two vials and incubated in an orbital shaker for 24 hours. After incubation, all solids in each sample were dissolved, and the solubility was measured as follows.

[2] = Competitive slurry experiment for Pattern 1 and Pattern 3; settings: competitive slurries in DIPE and heptane, room temperature and 50° C.
Protocol: To investigate the relative thermodynamic stability of various crystalline form patterns at room temperature and 50° C., competitive slurry experiments were carried out.
A mixture of Pattern 1 and Pattern 3 (ED01748-028-003-00, 4×20 mg) was dispensed into vials. They were treated with 250 μL of a saturated solution of Pattern 1 (ED01748-006-001-00) in DIPE or heptane (50 mg of ED01748-006-001-00 was treated with DIPE or heptane and heated at 50° C., a portion was removed as needed, and the resulting product was filtered through a 0.45 μm syringe filter, thereby forming a slurry). The produced slurry was stirred at room temperature or 50° C. After analysis, the solid was returned to the vial, and an additional saturated solution was added as needed to maintain the slurry. After 4 days, the purity of the material was confirmed by UPLC.

[3] = Competitive slurry experiment for Pattern 1, Pattern 3, Pattern 6 and Pattern 11
Protocol: A mixture of Pattern 1 and Pattern 3 (ED01748-028-003-00, 10 mg each) was dispensed into four vials, and Pattern 6 (ED01748-034-002-00, 5 mg) and Pattern 11 (ED01748-037-002-00, 5 mg) were added to respective vials. Each sample was treated with 300 μL of a filtered saturated solution of Pattern 1 (ED01748-006-001-00) prepared in DIPE or heptane. The resulting slurries were stirred at room temperature and 50° C. A small sample was periodically removed and analyzed by)(RFD, followed by monitoring as described in the following table.
After analysis, the solid was returned to the vial, and a saturated solution was additionally injected as needed to maintain the slurries. After 25 days, the purity of the solid material obtained in the heptane experiment was confirmed by UPLC, and no significant decrease in purity was shown by UPLC.

[4] = Melting and cooling of Pattern 1 (DSC A experiment; melting and rapid cooling), degradation by 1H NMR/UPLC
Protocol: A portion of ED01748-006-001-00 was heated in a differential scanning calorimeter at 10° C./min to 110° C., and then cooled to 30° C. at 50° C./min. The contents of a DSC pan were analyzed by ^1H NMR.
Each (about 10 mg) of two ED01748-006-001-00 samples was put into a vial, and then into a drying pistol which had been preheated to 110° C. for 10 minutes under ambient pressure. The molten sample was removed, followed by rapid cooling with dry ice. The glass material from the first sample was rapidly crystallized by impacting a part that characterized it. As a result of XRPD analysis, the glass material was identified as Pattern 1 (FIG. 7).

[5] = Polymorphic screening with solvents and solvent/antisolvent
[6] = 110° C. for 10 minutes, rapid cooling with dry ice

With `C[C@H](OC(N)=O)[C@@H](O)c1ccccc1Cl` [ED01748-006-001-00, 1-(2-chlorophenyl)-(S)-1-hydroxypropyl-(S)-2-carbamate] the solubility at 24 h ([1]; fasted simulated gastric fluid (FaSSGF), fassgf or other biorelevant, fasted simulated gastric fluid, read-out: FaSSGF solubility after 24 h) was 16.8 mg/mL (≈ 73.3 mM), the solubility at 24 h ([1]; fasted simulated intestinal fluid (FaSSIF), fassif, fasted simulated intestinal fluid, read-out: FaSSIF solubility after 24 h) was 14.1 mg/mL (≈ 61.2 mM) and the Relative thermodynamic stability [2] was “more thermodynamically stable than Pattern 3”. For the same compound, the Relative thermodynamic stability ([3]; conclusion including heptane slurries, room temperature and 50° C., 25 days) was “more thermodynamically stable than Pattern 11 and Pattern 6”, the Relative thermodynamic stability ([3]; in DIPE at room temperature and 50° C., after 1 day) was “more thermodynamically stable than Pattern 3, Pattern 6 and Pattern 11” and the “Decomposition after melting and rapid cooling (1H NMR or UPLC)” value [4, 6] was “not significantly decomposed”. For the same compound, the “UPLC purity after melting and rapid cooling” value [4, 6] was 98.7%, the “Degradation after melting and cooling (1H NMR)” value ([4]; heated 10° C./min to 110° C., cooled to 30° C. at 50° C./min) was “no degradation or migration” and the Result ([5]; Exp. 1, 2-propanol 60 ul / Toluene 100 ul, Shaken RT, refrigerated) was “Soluble”. For the same compound, the Initial result ([5]; Exp. 1, solvent 2-propanol 60 ul, anti-solvent Toluene 100 ul) was “Soluble”, the Result ([5]; Exp. 2, 2-propanol 60 ul / Heptane 200 ul, Shaken RT, refrigerated) was “Soluble” and the Initial result ([5]; Exp. 2, solvent 2-propanol 60 ul, anti-solvent Heptane 200 ul) was “Soluble”. For the same compound, the Result ([5]; Exp. 3, 2-propanol 60 ul / Diethyl ether 100 ul, Shaken RT, refrigerated) was “Soluble”, the Initial result ([5]; Exp. 3, solvent 2-propanol 60 ul, anti-solvent Diethyl ether 100 ul) was “Soluble” and the Result ([5]; Exp. 4, 2-propanol 60 ul / TBME 200 ul, Shaken RT, refrigerated) was “Soluble”. For the same compound, the Initial result ([5]; Exp. 4, solvent 2-propanol 60 ul, anti-solvent TBME 200 ul) was “Soluble”, the Result ([5]; Exp. 5, acetone 60 ul / Toluene 100 ul, Shaken RT, refrigerated) was “Soluble” and the Initial result ([5]; Exp. 5, solvent acetone 60 ul, anti-solvent Toluene 100 ul) was “Soluble”. The Result ([5]; Exp. 6, acetone 60 ul / Heptane 175 ul, notes: oil) was “oil”, the Initial result ([5]; Exp. 6, solvent acetone 60 ul, anti-solvent Heptane 175 ul) was “Cloudy” and the Result ([5]; Exp. 7, acetone 60 ul / Diethyl ether 100 ul, Shaken RT, refrigerated) was “Soluble”. The Initial result ([5]; Exp. 7, solvent acetone 60 ul, anti-solvent Diethyl ether 100 ul) was “Soluble”, the Result ([5]; Exp. 8, acetone 60 ul / TBME 100 ul, Shaken RT, refrigerated) was “Soluble” and the Initial result ([5]; Exp. 8, solvent acetone 60 ul, anti-solvent TBME 100 ul) was “Soluble”. For the same compound, the “Result: crystalline form obtained (XRPD)” value ([5]; Exp. 9, chloroform 60 ul / Toluene 100 ul) was “Pattern 9”, the Result ([5]; Exp. 9, chloroform 60 ul / Toluene 100 ul, Shaken RT, solid XRPD) was “Crystalline” and the Initial result ([5]; Exp. 9, solvent chloroform 60 ul, anti-solvent Toluene 100 ul) was “Precipitate”. For the same compound, the “Result: crystalline form obtained (XRPD)” value ([5]; Exp. 10, chloroform 60 ul / Heptane 25 ul) was “Pattern 8”, the Result ([5]; Exp. 10, chloroform 60 ul / Heptane 25 ul, Shaken RT, solid XRPD) was “Crystalline” and the Initial result ([5]; Exp. 10, solvent chloroform 60 ul, anti-solvent Heptane 25 ul) was “Precipitate”. The Result ([5]; Exp. 11, chloroform 60 ul / Diethyl ether 100 ul, Shaken RT, refrigerated) was “Soluble”, the Initial result ([5]; Exp. 11, solvent chloroform 60 ul, anti-solvent Diethyl ether 100 ul) was “Soluble” and the Result ([5]; Exp. 12, chloroform 60 ul / TBME 100 ul, Shaken RT, refrigerated) was “Soluble”. The Initial result ([5]; Exp. 12, solvent chloroform 60 ul, anti-solvent TBME 100 ul) was “Soluble”, the “Result: crystalline form obtained (XRPD)” value ([5]; Exp. 13, DCM 80 ul / Toluene 100 ul) was “Pattern 9” and the Result ([5]; Exp. 13, DCM 80 ul / Toluene 100 ul, Shaken RT, solid XRPD) was “Crystalline”. The Initial result ([5]; Exp. 13, solvent DCM 80 ul, anti-solvent Toluene 100 ul) was “Precipitate”, the Result ([5]; Exp. 14 (second line so numbered), DCM 80 ul / Diethyl ether 100 ul, Shaken RT, refrigerated) was “Soluble” and the Initial result ([5]; Exp. 14 (second line so numbered), solvent DCM 80 ul, anti-solvent Diethyl ether 100 ul) was “Soluble”. For the same compound, the “Result: crystalline form obtained (XRPD)” value ([5]; Exp. 14, DCM 80 ul / Heptane 50 ul) was “Pattern 8”, the Result ([5]; Exp. 14, DCM 80 ul / Heptane 50 ul, Shaken RT, solid XRPD) was “Crystalline” and the Initial result ([5]; Exp. 14, solvent DCM 80 ul, anti-solvent Heptane 50 ul) was “Precipitate”. The Result ([5]; Exp. 16, DCM 80 ul / TBME 100 ul, Shaken RT, refrigerated) was “Soluble”, the Initial result ([5]; Exp. 16, solvent DCM 80 ul, anti-solvent TBME 100 ul) was “Soluble” and the “Result: crystalline form obtained (XRPD)” value ([5]; Exp. 18, ethyl acetate 60 ul / Heptane 100 ul) was “Pattern 11”. For the same compound, the Result ([5]; Exp. 18, ethyl acetate 60 ul / Heptane 100 ul, Oil, then solid formed) was “Crystalline”, the Initial result ([5]; Exp. 18, solvent ethyl acetate 60 ul, anti-solvent Heptane 100 ul) was “Cloudy” and the Result ([5]; Exp. 19, ethyl acetate 60 ul / Diethyl ether 100 ul, Shaken RT, refrigerated) was “Soluble”. For the same compound, the Initial result ([5]; Exp. 19, solvent ethyl acetate 60 ul, anti-solvent Diethyl ether 100 ul) was “Soluble”, the Result ([5]; Exp. 20, ethyl acetate 60 ul / TBME 100 ul, Shaken RT, refrigerated) was “Soluble” and the Initial result ([5]; Exp. 20, solvent ethyl acetate 60 ul, anti-solvent TBME 100 ul) was “Soluble”. The Result ([5]; Exp. 21, ethyl acetate 60 ul / Pentane 225 ul, notes: Oil) was “Oil”, the Initial result ([5]; Exp. 21, solvent ethyl acetate 60 ul, anti-solvent Pentane 225 ul) was “Cloudy” and the Result ([5]; Exp. 22, ethyl acetate 60 ul / cyclohexane 350 ul, Shaken RT, solid XRPD) was “Crystalline,”. For the same compound, the Initial result ([5]; Exp. 22, solvent ethyl acetate 60 ul, anti-solvent cyclohexane 350 ul) was “Precipitate”, the Result ([5]; Exp. 23, ethyl acetate 60 ul / methylcyclohexane 325 ul, Shaken RT, solid XRPD) was “Crystalline,” and the Initial result ([5]; Exp. 23, solvent ethyl acetate 60 ul, anti-solvent methylcyclohexane 325 ul) was “Precipitate”. For the same compound, the Result ([5]; Exp. 24, chloroform 60 ul / Pentane 75 ul, Shaken RT, solid XRPD) was “Crystalline”, the Initial result ([5]; Exp. 24, solvent chloroform 60 ul, anti-solvent Pentane 75 ul) was “Precipitate” and the Result ([5]; Exp. 25, chloroform 60 ul / cyclohexane 125 ul, Shaken RT, solid XRPD) was “Crystalline”. For the same compound, the Initial result ([5]; Exp. 25, solvent chloroform 60 ul, anti-solvent cyclohexane 125 ul) was “Precipitate”, the Result ([5]; Exp. 26, chloroform 60 ul / methylcyclohexane 75 ul, Shaken RT, solid XRPD) was “Crystalline” and the Initial result ([5]; Exp. 26, solvent chloroform 60 ul, anti-solvent methylcyclohexane 75 ul) was “Precipitate”. The Result ([5]; Exp. 27, DCM 80 ul / Pentane 100 ul, Shaken RT, solid XRPD) was “Crystalline”, the Initial result ([5]; Exp. 27, solvent DCM 80 ul, anti-solvent Pentane 100 ul) was “Precipitate” and the Result ([5]; Exp. 28, DCM 80 ul / cyclohexane 50 ul, Shaken RT, solid XRPD) was “Crystalline”. The Initial result ([5]; Exp. 28, solvent DCM 80 ul, anti-solvent cyclohexane 50 ul) was “Precipitate”, the Result ([5]; Exp. 29, DCM 80 ul / methylcyclohexane 50 ul, Shaken RT, solid XRPD) was “Crystalline” and the Initial result ([5]; Exp. 29, solvent DCM 80 ul, anti-solvent methylcyclohexane 50 ul) was “Precipitate”. For the same compound, the Result ([5]; Exp. number not given, ethyl acetate 60 ul / Toluene 100 ul, Shaken RT, refrigerated) was “Soluble” and the Initial result ([5]; Exp. number not given, solvent ethyl acetate 60 ul, anti-solvent Toluene 100 ul) was “Soluble”.

Reference: patent publication US12054449B2, “Phenylcarbamate crystalline form and method for manufacturing the same” (BIO-PHARM SOLUTIONS CO., LTD., priority 2021, dated 2024)
